From EP4427750A1, “TREATMENT OF LUNG ADENOCARCINOMA” (priority 2023, dated 2024)
pIC50: −log10 of the molar value. Where two headings read alike, the source gives them in different places.

Tests used:
A549 cell line [1] = assay: cells; type: cell-based; conditions: Homo sapiens
Procedure: A549 cells were obtained from ATCC and cultured with culture medium (D0819 DMEM 10% FBS 1% penicillin/streptomycin) at 37°C. Cell viability was measured using an MTT assay. MTT ((3-[4,5-dimethylthiazol-2-yl]-2,5-diphenyltetrazolium bromide) (1x), at 5 mg/ml) was added for 1 hour and formazan was dissolved with DMSO (dimethyl sulfoxide). Optical density at a wavelength of 570 nm was measured using a microplate reader (Hidex plate reader) to quantify the relative number of living cells. To determine treatment concentrations, cells were treated with serially diluted drugs until a concentration that reduced cell viability by around 50%. […] Cells were treated with the drugs at their designated concentrations for two days.

A549 cell line [2] = assay: LDH cytotoxicity assay; type: cell-based
Procedure: 30 minutes after LDH (Abcam Cat# ab65393) administration, optical density at a wavelength of 450 nm was measured using a microplate reader (Hidex plate reader) to quantify the relative LDH activity which was released into the media via the drug's cytotoxic effect.

MCM6 = assay: Western blot of MCM6 protein expression in A549 cells after drug treatment
TTK = assay: Western blot of TTK protein expression in A549 cells after drug treatment; type: cell-based; conditions: A549, 10µM
Procedure: PVDF membranes were blocked for 30 minutes with 5% skim milk and TBST (Tris Buffered Saline with 0.2% Tween 20) and then treated overnight on a shaker plate at 4°C with 0.5% skim milk with TBST and MCM6 (Abcam Cat# ab201683) and TTK (Abcam Cat# ab187520) primary antibodies diluted 1:20000 and for 30 minutes with TUBA1A (Abeam Cat# ab7291, RRID:AB_2241126) primary antibodies diluted 1:20000. The solution was then replaced with a new solution of 0.5% skim milk with TBST and anti-rabbit (Abeam Cat# ab6721, RRID:AB_955447) or anti-mouse (Abeam Cat# ab6789, RRID:AB_955439) secondary antibodies diluted 1:20000 for 30 minutes.

[3] = A549, 48 h, read-out: cell viability
[4] = A549, dose dependent MTT assay, read-out: concentration which could reduce the cell viability by 50%

| Structure (SMILES) | viability at 10 µM (A549 cell line [1]; [3]) | pIC50 (A549 cell line [1]; A549, read-out: concentration which could reduce the cell viability by 50%) | necrotic cell death (A549 cell line [2]) | viability at 0.1 µM (A549 cell line [1]; [3]) | pIC50 (A549 cell line [1]; [4]) | cytotoxicity at 0.1 µM (A549 cell line [2]; Homo sapiens, A549, 48 h, read-out: necrotic cell death) | protein level of MCM6 (MCM6; A549, 100nM) | necrotic cell death (A549 cell line [2]; A549, 10µM, lysis positive control 100%, untreated 0%) | effect on TTK protein level (TTK) | protein level of MCM6 (MCM6; A549, 10µM) |
| --- | --- | --- | --- | --- | --- | --- | --- | --- | --- | --- |
| COC[C@H]1OC(=O)c2coc3c2[C@@]1(C)C1=C(C3=O)[C@@H]2CCC(=O)[C@@]2(C)C[C@H]1OC(C)=O [wortmannin] | 62.3% | 5.00 | did not induce necrotic cell death |  |  |  |  |  |  |  |
| O=C1c2c(O)ccc(O)c2C(=O)c2c(NCCNCCO)ccc(NCCNCCO)c21 [mitoxantrone] |  |  |  | 52.2% | 7.00 | 3.45% | significantly reduced |  |  |  |
| OCCCNc1cc(-c2ccnc(Nc3cccc(Cl)c3)n2)ccn1 [CGP-60474] | 29.1% |  |  |  | 5.00 |  |  | did not induce necrotic cell death | showed an inhibitory effect on TTK | significantly reduced |
